Assay results reported in publication PMC6145916, “Interaction of mitochondrial fission factor with dynamin related protein 1 governs physiological mitochondrial function in vivo” (Scientific Reports, 2018).
Where no end group is shown, it is not given here.

Test system: primary cortical neurons
Test: Mitochondrial motility, primary cortical neurons
Format: cell-based, rat
Details: 4 µM P259, one hour
Method: Bottom, quantification of the form factor (degree of branching) and aspect ratio (major/minor axis length). At least 10,000 mitochondrial fragments were analyzed for each condition. Mitochondrial reactive oxygen species production (MitoSox Red) (b) and membrane potential (TMRM) (c) after overnight treatment with indicated concentrations of peptide (n = 3, with 3 replicates). […] Overlay of live microscopy imaging at time 0 (green) and 150 (red) seconds. […] An estimation of the % mobile mitochondria from the Pearson coefficient of each set of images. Data are mean ± s.e.
To quantify mitochondrial motility, the TMRM images were colored green and red at times 0 and 150 seconds, respectively. Mitochondrial motility corresponded to decreased co-localization of the two colors (Fig. 3d). […] Therefore, Mff-mediated anchoring of Drp1 on the outer mitochondrial membrane was necessary for mitochondrial motility in primary cortical neurons.
DMI6000B inverted microscope. All mitochondria were imaged with a GFP fi lter. Then, green […]
filter every 30 seconds for 5 minutes. The initial image was subtracted from each subsequent image to track signal change over time. […]
GFP filter (Keyence). […] The GFP and MitoSox signals were measured in a ring around each nucleus. Average MitoSox levels were quantified in […]
To quantify mitochondrial motility, the images at time 0 and 150 seconds w ere overlaid. […]

“YGRKKRRQRRRGSGIIQLPEIVVV-NH2 (C-terminus assumed) [P259]” was tested, and the “% mobile mitochondria” value (TMRM images 0 vs 150 sec, estimated from Pearson coefficient, basal approximately 37%, n = 4 control and 6 P259) was ~ 22% and the “decline in the proportion of mobile mitochondria” value (vs no peptide control) was 40%.
